According to article PMC10213797 (Acta Pharmaceutica Sinica. B, 2023):

Experiments:
murine AChE = details: cited from earlier work
hAChE = hAChE (Homo sapiens, UniProt P22303); experiment: hAChE inhibition, Ellman's method; format: biochemical
[1] = system: horse serum BChE (eqBChE); details: cited from earlier work
[2] = system: Electrophorus electricus AChE (eeAChE); details: cited from earlier work
mice = experiment: Rotarod test; format: in vivo
[3] = system: scopolamine-induced amnesic mice; experiment: Passive avoidance; format: in vivo; details: doses of one and 2 mg/kg; P < 0.001
hMAO-A = target: T1, hMAO-A (Homo sapiens, UniProt P21397); experiment: hMAO-A inhibition, horseradish-Amplex Red coupled assay; format: biochemical
T1 sequence (P21397 1-527): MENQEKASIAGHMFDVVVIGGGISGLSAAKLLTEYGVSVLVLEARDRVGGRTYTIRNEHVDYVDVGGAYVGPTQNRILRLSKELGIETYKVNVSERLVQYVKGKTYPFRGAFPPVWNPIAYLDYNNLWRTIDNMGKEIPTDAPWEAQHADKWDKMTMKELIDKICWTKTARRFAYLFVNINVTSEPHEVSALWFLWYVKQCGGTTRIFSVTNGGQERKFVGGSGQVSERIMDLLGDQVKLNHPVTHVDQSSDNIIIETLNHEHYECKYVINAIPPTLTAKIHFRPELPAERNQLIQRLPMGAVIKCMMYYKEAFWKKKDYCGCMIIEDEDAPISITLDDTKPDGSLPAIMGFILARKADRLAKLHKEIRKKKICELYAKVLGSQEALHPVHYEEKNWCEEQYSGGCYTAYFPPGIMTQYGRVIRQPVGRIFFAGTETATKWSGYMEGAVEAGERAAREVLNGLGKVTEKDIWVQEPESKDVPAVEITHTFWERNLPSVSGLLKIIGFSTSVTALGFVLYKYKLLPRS

hBChE [4] = target: T2, hBChE (Homo sapiens, UniProt P06276); experiment: hBChE inhibition, Ellman's method; format: biochemical
hMAO-B = target: T3, hMAO-B (Homo sapiens, UniProt P27338); experiment: hMAO-B inhibition, horseradish-Amplex Red coupled assay; format: biochemical
T3 sequence (P27338 1-520): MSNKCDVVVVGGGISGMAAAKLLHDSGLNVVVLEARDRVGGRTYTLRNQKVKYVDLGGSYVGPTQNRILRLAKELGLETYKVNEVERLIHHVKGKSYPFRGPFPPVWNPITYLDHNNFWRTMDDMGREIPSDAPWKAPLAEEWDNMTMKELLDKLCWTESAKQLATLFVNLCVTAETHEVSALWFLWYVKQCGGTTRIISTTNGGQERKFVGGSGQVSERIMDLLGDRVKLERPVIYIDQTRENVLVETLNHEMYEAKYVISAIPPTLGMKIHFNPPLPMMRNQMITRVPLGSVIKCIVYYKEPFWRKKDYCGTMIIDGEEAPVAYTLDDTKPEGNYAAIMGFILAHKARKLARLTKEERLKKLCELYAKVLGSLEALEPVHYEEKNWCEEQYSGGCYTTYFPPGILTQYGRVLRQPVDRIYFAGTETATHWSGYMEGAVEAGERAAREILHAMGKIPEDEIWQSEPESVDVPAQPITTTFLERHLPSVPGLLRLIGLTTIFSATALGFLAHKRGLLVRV

LPS-activated BV2 cells [5] = experiment: Nitrite quantification, Griess assay, LPS-stimulated BV2; format: cell-based; details: BV2, LPS 1 μg/mL, 19 at 5 μmol/L
[6] = system: SH-SY5Y cells treated with 6-OHDA; experiment: Neuroprotection against 6-OHDA toxicity, 7-AAD; format: cell-based; details: 100 μmol/L 6-OHDA
Aβ1–42 = Aβ1–42 (Homo sapiens, UniProt P05067); experiment: Aβ1–42 aggregation inhibition, ThT fluorescence assay; format: biochemical
[7] = system: APPSwe/PS1δE9 double transgenic mice; experiment: Aβ plaque load after chronic treatment, Thioflavin S staining; details: male and female mice at 10 months of age, 0.62 mg/kg/day, 4-month treatment
BBB-PAMPA permeability = details: PAMPA, pH 7.4, BBB–PAMPA permeability Papp (mean ± SD), pH 7.4, 4 h, 25 °C, brain sink buffer
LPS-activated BV2 cells [8] = experiment: Neuroprotection in LPS-induced BV2 neuroinflammation model, 7-AAD; format: cell-based; details: BV2, LPS 1 μg/mL, 19 at 0.5–5 μmol/L
[9] = target: T4, purified recombinant hMAO-B (Homo sapiens, UniProt P27338); experiment: hMAO-B steady-state kinetics, direct MMTP assay; format: biochemical; details: MMTP substrate
T4 sequence (P27338 1-520): T3 sequence (P27338 1-520)

[10] = DPPH radical-scavenging assay; details: read-out: Radical-scavenging DPPH assay EC50; means ± SEM (n = 2, in triplicates)
SH-SY5Y cells = experiment: Metabolic activity, MTS assay, SH-SY5Y; format: cell-based; details: 24 h, 1–100 μmol/L
HepG2 cells = experiment: Metabolic activity, MTS assay, HepG2; format: cell-based; details: HepG2, 24 h, 1–100 μmol/L
hBChE [11] = target: T2, hBChE; experiment: hBChE inhibition kinetics, progress curves of BTCI hydrolysis; format: biochemical; details: 50 μmol/L BTCI, 25 °C, pH 7.0
microglial BV2 cells = experiment: Cytotoxicity, 7-AAD flow cytometry, BV2; format: cell-based; details: at 10 μmol/L; sentence does not say which of SH-SY5Y/BV2
[12] = Metal chelation, UV–Vis spectra and Cu2+ titration; format: physicochemical; details: 30 μmol/L QN, equimolar metal ion, HEPES pH 7.4
[13] = IC50 ± SEM hBChE, Table 1, n = 3, in triplicates

hAChE, sequence (P22303 32-614): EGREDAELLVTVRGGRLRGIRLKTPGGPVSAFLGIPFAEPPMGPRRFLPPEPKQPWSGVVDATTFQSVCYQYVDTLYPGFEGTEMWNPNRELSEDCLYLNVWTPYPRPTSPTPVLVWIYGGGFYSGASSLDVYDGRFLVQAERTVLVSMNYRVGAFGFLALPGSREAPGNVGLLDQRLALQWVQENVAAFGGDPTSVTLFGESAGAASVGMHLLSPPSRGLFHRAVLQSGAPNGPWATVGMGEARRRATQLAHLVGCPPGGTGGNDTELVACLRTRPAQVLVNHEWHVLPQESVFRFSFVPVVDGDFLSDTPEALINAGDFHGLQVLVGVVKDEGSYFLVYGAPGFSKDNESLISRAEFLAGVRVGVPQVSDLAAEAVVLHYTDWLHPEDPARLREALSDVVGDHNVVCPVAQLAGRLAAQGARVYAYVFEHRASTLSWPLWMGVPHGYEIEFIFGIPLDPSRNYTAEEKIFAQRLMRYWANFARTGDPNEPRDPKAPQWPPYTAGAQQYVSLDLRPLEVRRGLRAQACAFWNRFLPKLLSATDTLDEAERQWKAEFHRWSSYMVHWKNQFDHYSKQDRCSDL
T2 sequence (P06276 29-602): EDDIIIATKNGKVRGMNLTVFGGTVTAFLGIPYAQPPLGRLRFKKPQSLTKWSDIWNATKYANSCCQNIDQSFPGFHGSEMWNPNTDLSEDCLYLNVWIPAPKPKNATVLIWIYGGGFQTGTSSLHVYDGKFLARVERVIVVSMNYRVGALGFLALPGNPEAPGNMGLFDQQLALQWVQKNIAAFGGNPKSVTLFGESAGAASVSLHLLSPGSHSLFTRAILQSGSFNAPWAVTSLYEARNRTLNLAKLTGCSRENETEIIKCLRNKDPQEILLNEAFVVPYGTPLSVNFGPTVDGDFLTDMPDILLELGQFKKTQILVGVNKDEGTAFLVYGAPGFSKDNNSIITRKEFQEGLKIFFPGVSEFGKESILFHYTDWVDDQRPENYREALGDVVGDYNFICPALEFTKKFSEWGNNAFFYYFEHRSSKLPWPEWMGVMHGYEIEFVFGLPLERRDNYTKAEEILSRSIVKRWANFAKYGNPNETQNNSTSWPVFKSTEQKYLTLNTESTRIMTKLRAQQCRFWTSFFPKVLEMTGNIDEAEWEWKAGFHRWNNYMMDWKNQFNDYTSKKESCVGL
Aβ1–42, sequence (P05067 672-713): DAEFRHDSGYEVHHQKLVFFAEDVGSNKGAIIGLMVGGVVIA

SMILES: CC(C)(C)/[N+]([O-])=C/c1ccccc1 [PBN, α-phenyl-tert-butylnitrone]
- murine AChE Ki′ (murine AChE): 2990 µM
- Ki (murine AChE; read-out: murine AChE Ki): 580 µM
- hAChE inhibition (in words) (hAChE): no inhibition
- IC50 ([1]; read-out: eqBChE IC50): 478 ± 38 µM
- eeAChE inhibition (in words) [2]: no inhibition

SMILES: CCN(C)C(=O)Oc1cccc([C@H](C)N(C)C)c1 [rivastigmine, reference compound]
- motor effects shortly after administration (mice; 2.5 mg/kg): caused muscle tremor and transient motor coordination deficits
- step-through latency in retention trial versus scopolamine-treated control [3]: significant differences

SMILES: CNC1=Nc2ccc(Cl)cc2C(c2ccccc2)=[N+]([O-])C1 [chlordiazepoxide]
- Ki ([1]; read-out: eqBChE Ki): 0.3 ± 0.04 µM
- Ki ([2]; read-out: eeAChE Ki): 50 ± 7 µM

SMILES: CC(C)(C)/[N+]([O-])=C/c1cc2cccc(OCCCN3CCCCC3)c2nc1Cl [QN 5, (Z)-N-tert-Butyl-1-(2-chloro-8-(3-(piperidin-1-yl)propoxy)quinolin-3-yl)methanimine oxide]
- IC50 (hAChE): 44.7 ± 4.8 µM
- IC50 (hMAO-A): 113 ± 13.2 µM
- IC50 (hBChE [4]; [13]): 5.57 ± 0.46 µM

SMILES: C#CCN1CCN(CCCOc2cccc3cc(/C=[N+](\[O-])Cc4ccccc4)c(Cl)nc23)CC1 [QN 8, (Z)-N-Benzyl-1-(2-chloro-8-(3-(4-(prop-2-yn-1-yl)piperazin-1-yl)propoxy)quinolin-3-yl)methanimine oxide]
- IC50 (hMAO-B): 13.8 ± 1.8 µM
- IC50 (hMAO-A): 14.9 ± 1.2 µM
- IC50 (hBChE [4]; [13]): 14.8 ± 2.1 µM

SMILES: [O-]/[N+](=C\c1cc2cccc(OCCCN3CCCCC3)c2nc1Cl)Cc1ccccc1 [QN 6, (Z)-N-Benzyl-1-(2-chloro-8-(3-(piperidin-1-yl)propoxy)quinolin-3-yl)methanimine oxide]
- IC50 (hMAO-B): 50.4 ± 4.5 µM
- IC50 (hAChE): 68.6 ± 13.6 µM
- IC50 (hMAO-A): 106 ± 3.7 µM
- IC50 (hBChE [4]; [13]): 10.2 ± 1.1 µM

SMILES: [O-]/[N+](=C\c1ccc2cccc(O)c2n1)Cc1ccccc1 [QN 19, (Z)-N-Benzyl-1-(8-hydroxyquinolin-2-yl)methanimine oxide]
- LPS-induced nitrite concentration (LPS-activated BV2 cells [5]): reduced LPS-induced increase in nitrite concentration
- motor impairments in the rotarod test (mice; 30 mg/kg i.p., 6, 18, and 24 rpm): did not result in any motor impairments
- cell viability under 6-OHDA co-treatment ([6]; 19 at 0.5 and 1 μmol/L): increased cell viability
- neuroprotective activity under 6-OHDA co-treatment ([6]; 19 at 2.5 and 5 μmol/L): neuroprotective activity was lost
- Inhibition of Aβ1–42 aggregation (Aβ1–42; 10 μmol/L ligand and 1.5 μmol/L Aβ1–42, mean ± SD (n ≥ 3)): n.i. ^e (n.i., no inhibition <20%)
- inhibition of self-induced aggregation of Aβ1–42 (in words) (Aβ1–42; ThT fluorescence assay): inactive
- effect on Aβ plaques of chronic treatment started later [7]: inefficient
- Papp at 4 h, 100 μmol/L (BBB-PAMPA permeability): ≥ 37.2 ×10⁻⁶ cm/s
- neuroprotective effects on cell viability, LPS model (LPS-activated BV2 cells [8]): No neuroprotective effects on cell viability
- mode of hMAO-B inhibition (best fit) [9]: competitive inhibition model
- EC50 [10]: 126 ± 0.1 µM
- IC50 (hBChE [4]; hBChE IC50, abstract): 0.00106 ± 0.00031 µM
- concentrations at which metabolic activity is reduced (MTS) (SH-SY5Y cells): higher than 10 μmol/L
- concentrations at which metabolic activity is reduced (MTS) (HepG2 cells): higher than 10 μmol/L
- Kii, dissociation constant for binding of the second molecule to hBChE (hBChE [11]): 14.5 nmol/L
- cell viability (7-AAD) (microglial BV2 cells): reduced cell viability to a significant extent
- chelation of Ca^2+ and Mg^2+ [12]: did not chelate
- complexes with Zn^2+, Cu^2+, Al^3+, Fe^2+ and Fe^3+ [12]: generated corresponding complexes

SMILES: O=Cc1ccc2cccc(O)c2n1 [QN 30, 8-hydroxyquinoline-2-carbaldehyde]
- IC50 (hMAO-B): 43.9 ± 3.4 µM
